According to the supplement of paper PMC10307832:

Legend:
Test in all cases: relative viability (nuclei count vs DMSO), 5 days (fraction); higher = more cells survive
AZD5582 + Olaparib = compound: C[C@@H](C(=O)N[C@@H](C1CCCCC1)C(=O)N2CCC[C@H]2C(=O)N[C@@H]3[C@@H](CC4=CC=CC=C34)OCC#CC#CCO[C@@H]5CC6=CC=CC=C6[C@@H]5NC(=O)[C@@H]7CCCN7C(=O)[C@H](C8CCCCC8)NC(=O)[C@H](C)NC)NC [AZD5582] + O=C(c1cc(Cc2n[nH]c(=O)c3ccccc23)ccc1F)N1CCN(C(=O)C2CC2)CC1 [Olaparib] (partner 8 µM)
In short: (§1)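 Relative viability divides the nuclei count in treated wells by that in vehicle wells. Lung cancer cell lines were seeded in 1536-well plates, dosed by pin tool the next day, and fixed and stained after 5 days in one step with final 0.05% Triton X-100, 1% formaldehyde and 1 ug/ml Hoechst. Dosing was a single drug or a fixed anchor-drug dose plus five library-drug doses (not always all listed) in √10 steps, and values are medians of duplicate plates imaged at 4×.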

[1] = compound: Cn1nnc2c(C(N)=O)ncn2c1=O [Temozolomide] + CS(=O)(=O)N1CCN(Cc2cc3nc(-c4cccc5[nH]ncc45)nc(N4CCOCC4)c3s2)CC1 [Pictilisib] (partner 1 µM)
In short: as §1

AZD5582 + Luminespib = compound: C[C@@H](C(=O)N[C@@H](C1CCCCC1)C(=O)N2CCC[C@H]2C(=O)N[C@@H]3[C@@H](CC4=CC=CC=C34)OCC#CC#CCO[C@@H]5CC6=CC=CC=C6[C@@H]5NC(=O)[C@@H]7CCCN7C(=O)[C@H](C8CCCCC8)NC(=O)[C@H](C)NC)NC [AZD5582] + CCNC(=O)c1noc(-c2cc(C(C)C)c(O)cc2O)c1-c1ccc(CN2CCOCC2)cc1 [Luminespib] (partner 0.01 µM)
In short: as §1

Temozolomide + AZD7762 = compound: Cn1nnc2c(C(N)=O)ncn2c1=O [Temozolomide] + NC(=O)Nc1cc(-c2cccc(F)c2)sc1C(=O)N[C@H]1CCCNC1 [AZD7762] (partner 0.2 µM)
In short: as §1

Cell Line	relative viability (AZD5582 + Olaparib; first compound 0.001581 µM)	relative viability (AZD5582 + Olaparib; first compound 0.005 µM)	relative viability (AZD5582 + Olaparib; first compound 0.01581 µM)	relative viability (AZD5582 + Olaparib; first compound 0.05 µM)	relative viability ([1]; first compound 0.2 µM)	relative viability ([1]; first compound 0.6325 µM)	relative viability ([1]; first compound 2 µM)	relative viability ([1]; first compound 6.325 µM)	relative viability ([1]; first compound 20 µM)	relative viability (AZD5582 + Luminespib; first compound 0.001581 µM)	relative viability (AZD5582 + Luminespib; first compound 0.005 µM)	relative viability (AZD5582 + Luminespib; first compound 0.01581 µM)	relative viability (AZD5582 + Luminespib; first compound 0.05 µM)	relative viability (Temozolomide + AZD7762; first compound 0.2 µM)	relative viability (Temozolomide + AZD7762; first compound 0.6325 µM)	relative viability (Temozolomide + AZD7762; first compound 2 µM)	relative viability (Temozolomide + AZD7762; first compound 6.325 µM)	relative viability (Temozolomide + AZD7762; first compound 20 µM)
NCI-H1299	0.943	0.965	0.963	0.931	0.823	0.8	0.744	0.784	0.847									
EBC-1	0.646	0.707	0.639	0.571	0.493	0.358	0.388	0.387	0.416									
NCI-H2228	0.629	0.61	0.618	0.333	0.354	0.36	0.227	0.234	0.47	0.136	0.205	0.144	0.15					
SW 1573	0.376	0.523	0.628	0.684	0.595	0.517	0.517	0.483	0.428	0.19	0.248	0.478	0.285					
NCI-H1650	0.758	0.668	0.813	0.834	0.661	0.611	0.55	0.579	0.478	0.2	0.21	0.189	0.211					
SW 900	0.667	0.656	0.79	0.495						0.168	0.169	0.208	0.188	0.587	0.63	0.583	0.627	0.683
NCI-H520	0.302	0.274	0.382	0.365	0.243	0.304	0.312	0.305	0.326	0.228	0.276	0.247	0.212					
HCC-366	0.292	0.428	0.353	0.44	0.164	0.152	0.198	0.212	0.219					0.286	0.258	0.376	0.311	0.338
COR-L 105	0.619	0.673	0.729	0.732	0.408	0.366	0.433	0.39	0.273	0.619	0.728	0.837	0.862					
NCI-H1648	0.65	0.735		0.672											0.643	0.756	0.583	0.614
NCI-H1623										0.405	0.551	0.572	0.543					
SK-LU-1	0.353	0.274	0.466	0.142	0.688	0.62	0.544	0.295	0.281	0.191	0.185	0.194	0.177					
NCI-H661	0.7	0.758	0.787	0.737	0.313	0.371	0.39	0.388	0.39	0.898	0.894	0.907	0.853					
SK-MES-1	0.653	0.515	0.792	0.605	0.279	0.362	0.424	0.331	0.282	0.773	0.925	0.683	0.956					
NCI-H2023	0.401	0.381	0.48	0.412	0.254	0.225	0.248	0.207	0.265	0.745	0.615	0.788	0.65					
A549	0.283	0.301	0.292	0.36	0.61	0.471	0.525	0.507	0.504									
COR-L23	0.307	0.378	0.32	0.329	1.01	0.771	0.961	0.829	0.715	0.635	0.739	0.65	0.926					
Calu-6	0.489		0.629	0.258	1.21	0.939	0.883	0.867	0.974									
NCI-H2009	0.636	0.703	0.706	0.751	0.969	0.891	0.893	0.638	0.87	0.959	0.987	1.02	1.09					
NCI-H522	0.554	0.628	0.641	0.674						0.953	1.03	1.2	1.29	0.728	0.907	0.952	0.748	0.758
NCI-H1563					0.654	0.619	0.642	0.609	0.664	0.509	0.551	0.52	0.52					
IA-LM	0.708	0.586	0.649	0.582	0.279	0.376	0.385	0.266	0.328									
UMC-11	0.369	0.375	0.399	0.381	1.08	0.917	0.893	0.729	0.442	0.933	1.23	1.06	1.14					
HCC-78	0.869	0.859	0.598	0.791	0.26	0.221	0.211	0.21	0.193					0.668	0.568	0.899		0.566
NCI-H2342	0.325	0.361	0.463	0.438						0.784	0.887	0.737	0.755	0.457	0.447	0.516	0.506	0.549
